Data set [1] is described as follows: Isothermal Titration Calorimetry (ITC) of peptoid-heparin binding. To be noted: for TΔS: calculated from binding constant and ΔH; for ΔS: calculated from ΔG and ΔH; for ΔG: calculated from ΔG=−RTlnKb. As for the experimental part:
For Table 3, binding constants and other thermodynamic parameters were determined for the chiral 12-mer analogs by ITC. The S12mer data represents 3 trials, and the R12mer represents 2 trials. Values for the parameters Kb, AH and N are obtained by fitting the titration curves. AG is calculated from ΔG=−RTlnKb and ΔS is calculated from […].
Isothermal Titration Calorimetry (“ITC”) was used to determine directly ΔH, the binding constant and stoichiometry, and ΔS was then calculated from the binding constant and ΔH for the binding reaction between heparin and the peptoids produced in this study. In a typical ITC experiment, peptoid in buffer solution was placed in the sample cell and an equivalent quantity of the same buffer solution was placed in the reference cell. Heparin in buffer solution was placed in the titration syringe. Heparin titrant was added to the sample cell in 10 μL aliquots with 210 sec. between aliquots.
FIG. 11 presents the isotherm for the endothermic reaction. The resulting integrated titration curve is given in FIG. 12 for a reaction between 0.20 mM peptoid in the sample cell and 0.25 mM heparin in the titration syringe.

Data set [2] can be described thus: Heparin Affinity Chromatography (HAC). In kind it is binding. To be noted: Table 4; heparin affinity column, gradient 0 to 1 M NaCl in pH 7.2, 50 mM sodium phosphate over 60 min, 0.65 mL/min. As for the experimental part: The relative affinities of the peptoids in Table 2 for heparin were determined by heparin affinity chromatography (“HAC”). Peptoid solutions, typically 0.2 mM, were eluted by gradient elution; mobile phase A consisted of pH 7.2, 50 mM sodium phosphate buffer and mobile phase B consisted of the same buffer but with 1 M NaCl added. The flow rate was 0.65 mL/min and the gradient began with 100% mobile phase A and 0% mobile phase B, and ended at 60 min with 0% mobile phase A and 100% B although most of the peptoid runs were complete within 30 min or less.

For data set [3] the following is noted: Coatest heparin in vitro assay; cited from earlier work.
In a further data set the test system is proteases. Particulars: physiological conditions; cited from earlier work.
The mark [4] stands for this setting: Table 4, ITC, heparin titrated into peptoid in buffer.
[5] abbreviates: Table 3, ITC, S12mer 3 trials, R12mer 2 trials.

Regarding H-[N(Arg)-N(Bu)-N(Spe)]2-NH2 [s6merG], in data set [1] (Table 4, ITC), the ΔH was -2.862 ± 0.222 kcal/mol and the TΔS was 2316 ± 32 cal/mol. For the same substance, the Kd (usually the equilibrium constant for the complex coming apart) in data set [1] (setting [4]) is 20.6 ± 0.8 µM. In data set [2], this substance registered an HAC r.t. of 13.5 ± 2.9 min.

Regarding “Ac-SRGKAKVKAKVKDQTK-NH2 (not fully specified; printed as Ac-SRGKAKVKAKVKDQTK-NH2) [L-HIPAP]”, in data set [3], the neutralizing heparin activity entry was “equally effective”.

For “H-[N(Lys)G-N(Bu)-N(Spe)]3-N2 [s9merLysG]”, in data set [1] (Table 4, ITC), the ΔH was -0.6151 ± 0.135 kcal/mol and the TΔS was 3948 ± 56 cal/mol. Further, in data set [1] (setting [4]), the Kd stood at 5 ± 0.3 µM. The substance also came in with an HAC r.t. in data set [2] of 20.6 ± 0.2 min.

As to H-[N(Orn)-N(Bu)-N(Spe)]3-NH2 [s9mer], in data set [1] (Table 4, ITC), the ΔH was 0.814 ± 0.089 kcal/mol and the TΔS was 7259 ± 45 cal/mol. In addition, binding in data set [1] (setting [4]) was put at a Kd of 18.6 ± 3.2 µM. This substance also yielded an HAC r.t. in data set [2] of 14.1 ± 1.2 min.

Take H-[N(Cad)-N(Bu)-N(Spe)]3-NH2 [s9merCad]: in data set [1] (Table 4, ITC), the ΔH came out at 2.381 ± 0.029 kcal/mol and the TΔS is 8989 ± 15 cal/mol. Moreover, the dissociation constant Kd in data set [1] (setting [4]) worked out at 11.7 ± 0.1 µM. Moreover, in data set [2], the HAC r.t. is 16.3 ± 0.6 min.

In the case of “H-[N(Orn)-N(All)-N(Spe)]3-NH2 [s9merAll]”, in data set [1] (Table 4, ITC), the ΔH was -0.931 ± 0.074 kcal/mol and the TΔS was 4627 ± 41 cal/mol. The same substance yielded a Kd in data set [1] (setting [4]) of 8.3 ± 3.2 µM. Further, in data set [2], the HAC r.t. amounted to 20 ± 2.0 min.

As for H-[N(Orn)-N(Et)-N(Spe)]3-NH2 [s9merEt], in data set [1] (Table 4, ITC), the ΔH was found to be 0.8223 ± 0.034 kcal/mol and the TΔS is 5140 ± 37 cal/mol. Further, the dissociation constant (Kd) in data set [1] (setting [4]) came to 10.9 ± 0.7 µM. Further, the HAC r.t. in data set [2] is 16.5 ± 0.5 min.

For Ac-SRGKAKVKAKVKDQTK-NH2 [D-HIPAP], the stability to proteases result with proteases is reported as “more stable than L-HIPAP”.

Regarding H-[N(Orn)-N(Pr)-N(Spe)]3-NH2 [s9merPr], in data set [1] (Table 4, ITC), the ΔH was found to be 3.555 ± 0.056 kcal/mol and the TΔS is 1427 ± 2.6 cal/mol. The substance also returned a dissociation constant Kd in data set [1] (setting [4]) of 11.2 ± 0.7 µM. Moreover, the HAC r.t. in data set [2] was 16.5 ± 0.7 min.

As for H-[N(Arg)-N(Bu)-N(Spe)]-NH2 [s3merG], in data set [1] (Table 4, ITC), the ΔH is -0.6325 ± 0.0085 kcal/mol and the TΔS was 2026.4 ± 159 cal/mol. Besides, binding in data set [1] (setting [4]) was characterised by a dissociation constant (Kd) of 140 ± 11 µM. The same substance gave an HAC r.t. in data set [2] of 3.8 ± 0.3 min.

On to H-[N(Orn)-N(Me)-N(Spe)]3-NH2 [s9merMe], for which, in data set [1] (Table 4, ITC), the ΔH came out at 1.654 ± 0.011 kcal/mol and the TΔS was 3161 ± 76 cal/mol. In data set [1] (setting [4]), this substance had a dissociation constant (Kd) of 8.3 ± 2 µM. Moreover, the HAC r.t. in data set [2] came to 18.1 ± 0.5 min.

As for H-[N(Orn)-N(Bu)-N(Spe)]-NH2 [s3mer], in data set [1] (Table 4, ITC), the ΔH came to 0.3867 ± 0.237 kcal/mol and the TΔS is 5057 ± 35 cal/mol. In data set [1] (setting [4]), the Kd stood at 164 ± 32 µM. This substance returned an HAC r.t. in data set [2] of 3.0 ± 0.6 min.

As to H-[N(Orn)-N(Bu)-N(Spe)]2-NH2 [s6mer], in data set [1] (Table 4, ITC), the ΔH was determined as 0.565 ± 0.064 kcal/mol and the TΔS is 7748 ± 880 cal/mol. Also, the affinity in data set [1] (setting [4]), expressed as Kd, was 44 ± 5 µM. Moreover, the HAC r.t. in data set [2] was found to be 9.61 ± 1.1 min.

For H-[N(Orn)-N(Bu)-N(Spe)]4-NH2 [s12merG], in data set [1] (Table 4, ITC), the ΔH was -0.167 ± 0.038 kcal/mol and the TΔS was 7682 ± 43 cal/mol. Further, in data set [1] (setting [4]), the affinity, expressed as Kd, was 3.4 ± 0.4 µM. In data set [2], the HAC r.t. is given as 29.2 ± 1.0 min.

For Ac-SRGKAKVKAKVKDQTK-NH2 [L-HIPAP], the stability to proteases result with proteases was “more susceptible to degradation by proteases”.

H-[N(Arg)-N(Pr)-N(Spe)]3-NH2 [s9merPrG]: in data set [1] (Table 4, ITC), the ΔH was -1.634 ± 0.043 kcal/mol and the TΔS is 4639 ± 36 cal/mol. For the same substance, binding in data set [1] (setting [4]) was characterised by a dissociation constant (Kd) of 5.6 ± 1.8 µM. In addition, the HAC r.t. in data set [2] is 20.3 ± 0.6 min.

On to “H-[N(Cad)G-N(Bu)-N(Spe)]3-NH2 [s9merCadG]”, for which, in data set [1] (Table 4, ITC), the ΔH was -0.2835 ± 0.027 kcal/mol and the TΔS is 7500 ± 32 cal/mol. For the same substance, the dissociation constant Kd in data set [1] (setting [4]) is 5.5 ± 3.4 µM. The same substance displayed an HAC r.t. in data set [2] of 20.1 ± 0.5 min.

As for H-[N(Arg)-N(Et)-N(Spe)]3-NH2 [s9merEtG], in data set [1] (Table 4, ITC), the ΔH was -2.176 ± 0.082 kcal/mol and the TΔS is 3159 ± 115 cal/mol. In addition, binding in data set [1] (setting [4]) was put at a Kd of 4.3 ± 2.2 µM. This substance came in with an HAC r.t. in data set [2] of 21.5 ± 0.5 min.

With H-[N(Orn)-N(Bz)-N(Spe)]3-NH2 [s9merBz], in data set [1] (Table 4, ITC), the ΔH is -0.545 ± 0.121 kcal/mol and the TΔS is 2851 ± 1.4 cal/mol. Also, in data set [1] (setting [4]), the dissociation constant (Kd) came to 0.9 ± 0.4 µM. This substance also yielded an HAC r.t. in data set [2] of 29.3 ± 0.5 min.

As for H-[N(Arg)-N(Bu)-N(Spe)]3-NH2 [s9merG], in data set [1] (Table 4, ITC), the ΔH is -1.197 ± 0.071 kcal/mol and the TΔS is 16.6 ± 1.7 cal/mol. The Kd in data set [1] (setting [4]) came to 4.76 ± 2.3 µM. In addition, the HAC r.t. in data set [2] is listed as 20.8 ± 0.8 min.

As for H-[N(Orn)-N(Bu)-N(Rpe)]4-NH2 [r12mer], in data set [1] (setting [5]), the Kd was 7.57 µM and the ΔH was found to be 1.278 kcal/mol. Further, in data set [1] (Table 3, ITC), the ΔS is 19.01 cal/mole ° C and the ΔG was -6.956 kcal/mol. In data set [1] (Table 4, ITC), the ΔH is 1.278 ± 0.379 kcal/mol and the TΔS is 5664 ± 2.5 cal/mol. Binding in data set [1] (setting [4]) was characterised by a dissociation constant (Kd) of 7.6 ± 4.2 µM. In data set [2], this substance registered an HAC r.t. of 18.5 ± 0.6 min.

In the case of H-[N(Orn)-N(Bu)-N(Spe)]4-NH2 [s12mer], in data set [1] (ITC and HAC results, comparison in words), the “relative binding affinity to heparin” value is reported as “greater binding affinity”. For the same substance, in data set [1] (setting [5]), the Kd was determined as 4.11 µM and the ΔH was 1.733 kcal/mol. In data set [1] (Table 3, ITC), the ΔS is listed as 30.53 cal/mole ° C and the ΔG is -6.309 kcal/mol. In addition, in data set [1] (Table 4, ITC), the ΔH amounted to 1.733 ± 0.047 kcal/mol and the TΔS was 9097 ± 30 cal/mol. For the same substance, the affinity in data set [1] (setting [4]), expressed as Kd, was 4.11 ± 0.6 µM. In data set [2], the HAC r.t. worked out at 21.6 ± 0.6 min.

For “H-[N(Orn)-N(Orn)-N(Spe)]4-NH2 [s9merOrnOrn]”, in data set [1] (ITC with heparin), the “enthalpy of reaction (sign)” value is “exothermic”. For the same substance, in data set [1] (Table 4, ITC), the ΔH was -5.253 ± 0.105 kcal/mol and the TΔS was 3992 ± 383 cal/mol. In addition, the equilibrium dissociation constant (Kd) in data set [1] (setting [4]) came to 0.14 ± 0.004 µM. Also, the HAC r.t. in data set [2] is reported as 38.5 ± 5.0 min.

In the case of H-[N(Lys)-N(Bu)-N(Spe)]3-NH2 [s9merLys], in data set [1] (Table 4, ITC), the ΔH was 3.305 ± 0.064 kcal/mol and the TΔS is 10,000 ± 54 cal/mole. This substance also yielded a Kd in data set [1] (setting [4]) of 16.4 ± 11 µM. For the same substance, the HAC r.t. in data set [2] was found to be 14.6 ± 0.2 min.

Source of the values: patent US20140256638A1, “PEPTOID NEUTRALIZING AGENTS” (The Regents of the University of California, priority 2013, published 2014).
